From US20050282743A1, “Molecular interactions in cells” (Arbor Vita Corporation, priority 2001, published 2005) come the findings set out here.

Assay [1] has as its target T1, PDZ protein (GST-PDZ fusion) (Homo sapiens, UniProt Q02410).
T1 construct: made in house; host or cells: E. coli (DH5alpha, BL21 or JM109)
T1 sequence (Q02410 1-837): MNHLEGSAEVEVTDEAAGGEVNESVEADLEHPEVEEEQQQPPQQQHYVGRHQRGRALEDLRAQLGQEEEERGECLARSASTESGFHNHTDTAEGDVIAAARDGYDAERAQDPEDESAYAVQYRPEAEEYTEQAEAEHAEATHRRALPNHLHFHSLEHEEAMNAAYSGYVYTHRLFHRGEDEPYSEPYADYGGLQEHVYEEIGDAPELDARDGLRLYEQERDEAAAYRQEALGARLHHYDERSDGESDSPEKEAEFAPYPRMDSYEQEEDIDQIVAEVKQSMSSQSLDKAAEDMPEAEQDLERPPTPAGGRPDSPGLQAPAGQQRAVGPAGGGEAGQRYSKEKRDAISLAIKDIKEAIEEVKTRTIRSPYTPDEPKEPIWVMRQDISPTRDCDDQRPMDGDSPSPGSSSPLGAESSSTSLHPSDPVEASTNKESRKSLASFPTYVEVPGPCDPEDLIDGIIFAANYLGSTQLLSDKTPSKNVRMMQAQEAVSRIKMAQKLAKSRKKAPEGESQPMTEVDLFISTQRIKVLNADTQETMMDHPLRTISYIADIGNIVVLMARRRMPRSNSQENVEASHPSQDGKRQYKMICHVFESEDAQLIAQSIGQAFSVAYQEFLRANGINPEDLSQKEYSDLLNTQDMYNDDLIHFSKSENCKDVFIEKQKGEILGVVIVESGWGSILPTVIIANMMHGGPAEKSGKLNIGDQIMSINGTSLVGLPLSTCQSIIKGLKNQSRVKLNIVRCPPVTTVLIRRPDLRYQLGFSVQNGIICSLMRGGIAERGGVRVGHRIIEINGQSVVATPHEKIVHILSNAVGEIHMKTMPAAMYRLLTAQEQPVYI
In words: G' assay (10 uM PL peptide), results of TABLE 7 and TABLE 12. Format: binding. Put shortly: (§1)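 Biotin-PL peptide (N-term label), 10 uM vs GST-PDZ; protein 5 ug/ml by default. A450 nm binned: 1 = 0-1, 2 = 1-2, 3 = 2-3, 4 = 3-4, 5 = >4 on >2 repeats, 0 = no binding.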

Assay [2] addresses T2, PDZ protein (GST-PDZ fusion) (Homo sapiens, UniProt O75970).
T2 construct: made in house; host or cells: E. coli (DH5alpha, BL21 or JM109)
Described as above. Format: binding. The method in brief: as §1

Ends that are not written are not given here. Peptide text beside a SMILES is read from it. * marks the point of attachment. Biotin = O=C1N[C@H]2[C@H](CS[C@H]2CCCCC(=O)*)N1

T2 sequence (O75970 whole entry, the tested form may be a part): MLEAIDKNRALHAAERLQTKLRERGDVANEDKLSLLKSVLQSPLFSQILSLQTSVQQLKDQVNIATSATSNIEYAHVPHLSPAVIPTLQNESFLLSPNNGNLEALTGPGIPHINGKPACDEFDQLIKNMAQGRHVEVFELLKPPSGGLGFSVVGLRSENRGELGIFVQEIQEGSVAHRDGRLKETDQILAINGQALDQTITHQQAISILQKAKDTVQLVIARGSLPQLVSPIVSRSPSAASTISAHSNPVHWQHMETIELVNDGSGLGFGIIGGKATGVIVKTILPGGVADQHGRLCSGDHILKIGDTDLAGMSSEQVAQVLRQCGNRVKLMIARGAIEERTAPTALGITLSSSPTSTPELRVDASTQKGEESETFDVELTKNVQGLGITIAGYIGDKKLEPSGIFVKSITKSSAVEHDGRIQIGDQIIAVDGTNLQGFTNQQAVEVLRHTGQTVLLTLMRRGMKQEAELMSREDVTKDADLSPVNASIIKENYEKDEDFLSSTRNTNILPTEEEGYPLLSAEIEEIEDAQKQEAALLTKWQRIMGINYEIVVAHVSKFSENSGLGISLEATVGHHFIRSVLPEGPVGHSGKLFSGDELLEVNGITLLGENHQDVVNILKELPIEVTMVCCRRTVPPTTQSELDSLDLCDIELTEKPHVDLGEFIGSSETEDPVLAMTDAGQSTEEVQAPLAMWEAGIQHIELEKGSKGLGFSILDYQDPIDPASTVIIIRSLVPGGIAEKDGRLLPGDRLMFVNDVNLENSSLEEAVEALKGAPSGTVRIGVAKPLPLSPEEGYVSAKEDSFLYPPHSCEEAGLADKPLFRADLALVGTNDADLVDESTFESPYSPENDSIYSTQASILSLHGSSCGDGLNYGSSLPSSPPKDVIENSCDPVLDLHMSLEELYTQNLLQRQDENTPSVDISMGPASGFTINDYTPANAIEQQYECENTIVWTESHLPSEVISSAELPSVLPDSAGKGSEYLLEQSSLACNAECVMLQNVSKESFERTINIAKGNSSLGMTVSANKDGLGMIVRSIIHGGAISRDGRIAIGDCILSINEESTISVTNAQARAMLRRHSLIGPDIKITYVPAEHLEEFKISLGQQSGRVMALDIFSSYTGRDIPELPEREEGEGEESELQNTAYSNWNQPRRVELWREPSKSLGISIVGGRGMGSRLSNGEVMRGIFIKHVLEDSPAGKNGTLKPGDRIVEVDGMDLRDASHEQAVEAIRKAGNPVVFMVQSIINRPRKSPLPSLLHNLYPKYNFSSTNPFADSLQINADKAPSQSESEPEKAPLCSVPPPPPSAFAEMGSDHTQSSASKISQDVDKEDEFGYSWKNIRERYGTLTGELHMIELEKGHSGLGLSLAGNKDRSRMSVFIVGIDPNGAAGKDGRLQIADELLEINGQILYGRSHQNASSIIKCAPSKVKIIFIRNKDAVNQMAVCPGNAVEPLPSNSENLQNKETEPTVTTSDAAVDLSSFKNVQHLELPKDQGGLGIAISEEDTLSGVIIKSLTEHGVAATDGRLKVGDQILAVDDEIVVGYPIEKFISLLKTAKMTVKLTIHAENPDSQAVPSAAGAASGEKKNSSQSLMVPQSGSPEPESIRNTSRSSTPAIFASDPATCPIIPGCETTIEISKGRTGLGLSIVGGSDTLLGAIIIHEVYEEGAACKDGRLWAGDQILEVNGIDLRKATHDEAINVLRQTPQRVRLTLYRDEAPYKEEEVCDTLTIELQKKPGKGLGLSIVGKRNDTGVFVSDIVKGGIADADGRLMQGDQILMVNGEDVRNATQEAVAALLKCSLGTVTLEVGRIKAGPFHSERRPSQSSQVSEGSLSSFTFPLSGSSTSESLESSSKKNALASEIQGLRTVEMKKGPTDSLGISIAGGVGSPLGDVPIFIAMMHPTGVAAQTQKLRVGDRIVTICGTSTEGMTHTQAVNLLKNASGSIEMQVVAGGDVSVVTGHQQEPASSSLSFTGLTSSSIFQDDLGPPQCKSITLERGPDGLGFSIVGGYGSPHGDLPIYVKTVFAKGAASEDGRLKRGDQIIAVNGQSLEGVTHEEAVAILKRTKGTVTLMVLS

For `CC(C)C[C@H](NC(=O)[C@H](CCCNC(=N)N)NC(=O)CNC(=O)CNC(=O)[C@H](CCCNC(=N)N)NC(=O)[C@H](C)NC(=O)[C@@H]1CCCN1C(=O)[C@H](CCCNC(=N)N)NC(=O)CNC(=O)CNC(=O)[C@@H](NC(=O)[C@H](C)NC(=O)CCCC[C@@H]1SC[C@@H]2NC(=O)N[C@@H]21)C(C)C)C(=O)N[C@@H](CCC(N)=O)C(=O)NCC(=O)N[C@@H](CCCNC(=N)N)C(=O)N[C@@H](CCCNC(=N)N)C(=O)N[C@@H](CCC(N)=O)C(=O)N[C@H](C(=O)N[C@@H](CCC(N)=O)C(=O)N[C@H](C(=O)O)C(C)C)[C@@H](C)O` [HPV E6 58 (modified)] (Biotin-AVGGRPARGGRLQGRRQTQV-OH; C-terminus assumed), the Classification was 1 (A450 nm 0-1) in assay [1] (PDZ Mint 1, PDZ Domain 2); 3 (A450 nm 2-3) in assay [2] (PDZ MUPP-1, PDZ Domain 10); 1 (A450 nm 0-1) in assay [2] (PDZ MUPP-1, PDZ Domain 13).

“A2AC_HUMAN (Modified) (Biotin-DFRPSFKHILFRRARRGFRQ; not fully specified)”: the Classification was 3 (A450 nm 2-3) in assay [1] (PDZ Mint 1, PDZ Domain 2) and 3 (A450 nm 2-3) in assay [2] (PDZ MUPP-1, PDZ Domain 4).

As for “VHDAESSDEDGYDWGPATDL (Biotin-VHDAESSDEDGYDWGPATDL) [zona occludens 3 (ZO-3)]”, the Classification in assay [1] (PDZ Mint 1, PDZ Domain 2) is on record as 2 (A450 nm 1-2); in assay [2] (PDZ MUPP-1, PDZ Domain 7), 1 (A450 nm 0-1); in assay [2] (PDZ MUPP-1, PDZ Domain 9), 1 (A450 nm 0-1); in assay [2] (PDZ MUPP-1, PDZ Domain 13) it was 2 (A450 nm 1-2).

Turning to `CC(C)C[C@H](NC(=O)[C@H](CC(=O)O)NC(=O)[C@H](CO)NC(=O)[C@H](CCC(=O)O)NC(=O)CNC(=O)[C@H](Cc1ccc(O)cc1)NC(=O)[C@H](CC(C)C)NC(=O)[C@H](C)NC(=O)[C@H](CO)NC(=O)[C@H](CO)NC(=O)[C@H](Cc1ccccc1)NC(=O)[C@H](C)NC(=O)[C@H](C)NC(=O)[C@H](Cc1ccc(O)cc1)NC(=O)[C@H](CC(=O)O)NC(=O)[C@H](CC(C)C)NC(=O)[C@H](C)NC(=O)CNC(=O)[C@@H]1CCCN1C(=O)[C@@H](NC(=O)CCCC[C@@H]1SC[C@@H]2NC(=O)N[C@@H]21)C(C)C)C(=O)O` [a-actinin 2] (Biotin-VPGALDYAAFSSALYGESDL-OH; C-terminus assumed), the Classification is listed as 1 (A450 nm 0-1) in assay [1] (PDZ Mint 1, PDZ Domain 1, 2) and 1 (A450 nm 0-1) in assay [1] (PDZ Mint 1, PDZ Domain 2).

As to `CC[C@H](C)[C@H](NC(=O)CNC(=O)[C@H](CO)NC(=O)[C@H](Cc1ccccc1)NC(=O)[C@@H](NC(=O)[C@H](CS)NC(=O)CNC(=O)CNC(=O)[C@H](C)NC(=O)[C@@H]1CCCN1C(=O)[C@@H](NC(=O)[C@@H]1CCCN1C(=O)CCCC[C@@H]1SC[C@@H]2NC(=O)N[C@@H]21)[C@@H](C)CC)[C@@H](C)O)C(=O)N[C@@H](Cc1ccccc1)C(=O)N1CCC[C@H]1C(=O)N[C@H](C(=O)N[C@@H](CC(C)C)C(=O)N[C@H](C(=O)N[C@@H](CO)C(=O)N1CCC[C@H]1C(=O)N[C@@H](CC(C)C)C(=O)O)[C@@H](C)O)[C@@H](C)O` [KIA 1481] (Biotin-PIPAGGCTFSGIFPTLTSPL-OH; C-terminus assumed), the Classification in assay [1] (PDZ Mint 1, PDZ Domain 1, 2) is listed as 3 (A450 nm 2-3); in assay [1] (PDZ Mint 1, PDZ Domain 2), 3 (A450 nm 2-3).

For the compound `CC[C@H](C)[C@H](NC(=O)[C@H](CC(=O)O)NC(=O)[C@H](CCC(=O)O)NC(=O)[C@H](CCCNC(=N)N)NC(=O)[C@@H](NC(=O)CCCC[C@@H]1SC[C@@H]2NC(=O)N[C@@H]21)[C@@H](C)O)C(=O)N[C@@H](Cc1ccc(O)cc1)C(=O)N[C@H](C(=O)N[C@@H](CC(N)=O)C(=O)N[C@@H](Cc1ccc(O)cc1)C(=O)N1CCC[C@H]1C(=O)N[C@H](C(=O)N[C@@H](Cc1ccccc1)C(=O)N[C@@H](CO)C(=O)N[C@@H](CCCNC(=N)N)C(=O)N[C@@H](CCCNC(=N)N)C(=O)N1CCC[C@H]1C(=O)N[C@@H](CCCCN)C(=O)N[C@H](C(=O)N[C@@H](CCCNC(=N)N)C(=O)N[C@H](C(=O)O)C(C)C)[C@@H](C)O)[C@@H](C)O)C(C)C` [DNAM-1] (Biotin-TREDIYVNYPTFSRRPKTRV-OH; C-terminus assumed), the Classification in assay [2] (PDZ MUPP-1, PDZ Domain 10) is 4 (A450 nm 3-4).

Take “ARHRVTSYTSSSVNVSSNL (Biotin-ARHRVTSYTSSSVNVSSNL) [IL-8RB]”: in assay [2] (PDZ MUPP-1, PDZ Domain 13), the Classification is given as 1 (A450 nm 0-1).

Consider `CC(C)C[C@H](NC(=O)[C@H](C)NC(=O)[C@@H](NC(=O)[C@H](CCC(=O)O)NC(=O)[C@H](CCCNC(=N)N)NC(=O)[C@H](CCCNC(=N)N)NC(=O)CNC(=O)[C@H](CCC(N)=O)NC(=O)[C@H](CC(C)C)NC(=O)[C@H](CCCNC(=N)N)NC(=O)CNC(=O)CNC(=O)[C@H](CCCNC(=N)N)NC(=O)[C@H](C)NC(=O)[C@H](CO)NC(=O)[C@H](CCCNC(=N)N)NC(=O)CNC(=O)CNC(=O)[C@H](C)NC(=O)[C@H](C)NC(=O)CCCC[C@@H]1SC[C@@H]2NC(=O)N[C@@H]21)[C@@H](C)O)C(=O)O` [HPV E6 33 (modified)] (Biotin-AAGGRSARGGRLQGRRETAL-OH; C-terminus assumed), for which the Classification in assay [1] (PDZ Mint 1, PDZ Domain 2) is on record as 1 (A450 nm 0-1); in assay [2] (PDZ MUPP-1, PDZ Domain 13), 2 (A450 nm 1-2).

As for “RNIEEVYVGGKQVVPFSSSV (Biotin-RNIEEVYVGGKQVVPFSSSV) [Nedasin (s-form)]”, the Classification in assay [1] (PDZ Mint 1, PDZ Domain 1, 2) was 1 (A450 nm 0-1).

Regarding “LNETTETQRTLLNGDLQTSI (Biotin-LNETTETQRTLLNGDLQTSI) [SSTR2 (somatostatin recepor 2)]”, the Classification is listed as 1 (A450 nm 0-1) in assay [1] (PDZ Mint 1, PDZ Domain 1, 2) and 1 (A450 nm 0-1) in assay [1] (PDZ Mint 1, PDZ Domain 2).

On to TQGFPGPATWRRISSLESEV, for which the Classification in assay [1] (PDZ Mint 1, PDZ Domain 1, 2) is reported as 1 (A450 nm 0-1); in assay [1] (PDZ Mint 1, PDZ Domain 2), 1 (A450 nm 0-1); in assay [2] (PDZ MUPP-1, PDZ Domain 5), 1 (A450 nm 0-1); in assay [2] (PDZ MUPP-1, PDZ Domain 10), 1 (A450 nm 0-1); in assay [2] (PDZ MUPP-1, PDZ Domain 13), 5 (A450 nm of 4 more than 2× repeated).

For `CC[C@H](C)[C@H](NC(=O)[C@H](CO)NC(=O)[C@@H](NC(=O)[C@H](Cc1ccccc1)NC(=O)[C@H](CO)NC(=O)CCCC[C@@H]1SC[C@@H]2NC(=O)N[C@@H]21)[C@@H](C)O)C(=O)N[C@@H](CC(C)C)C(=O)N[C@H](C(=O)N[C@@H](CS)C(=O)N[C@@H](Cc1c[nH]cn1)C(=O)N[C@@H](CCC(N)=O)C(=O)N[C@@H](CCCNC(=N)N)C(=O)N[C@@H](CCCNC(=N)N)C(=O)N[C@H](C(=O)N[C@@H](CCC(N)=O)C(=O)N[C@@H](CCCNC(=N)N)C(=O)N[C@@H](CCCCN)C(=O)N[C@@H](CCC(=O)O)C(=O)N[C@H](C(=O)N[C@H](C(=O)N[C@@H](C)C(=O)O)C(C)C)[C@@H](C)O)[C@@H](C)O)[C@@H](C)O` [GluR5-2 (rat)], the Classification is recorded as 2 (A450 nm 1-2) in assay [2] (PDZ MUPP-1, PDZ Domain 10) and 1 (A450 nm 0-1) in assay [2] (PDZ MUPP-1, PDZ Domain 11).

In the case of CKR5_HUMAN (ERASSVYTRSTGEQEISVGL), in assay [1] (PDZ Mint 1, PDZ Domain 1, 2), the Classification is listed as 1 (A450 nm 0-1).

As for “KTMPAATYRLLTGQEQPVYL (Biotin-KTMPAATYRLLTGQEQPVYL) [MINT-3]”, the Classification in assay [1] (PDZ Mint 1, PDZ Domain 1, 2) is reported as 2 (A450 nm 1-2); in assay [1] (PDZ Mint 1, PDZ Domain 2), 2 (A450 nm 1-2); in assay [2] (PDZ MUPP-1, PDZ Domain 3) it was 1 (A450 nm 0-1); in assay [2] (PDZ MUPP-1, PDZ Domain 11) it was 2 (A450 nm 1-2).

In the case of “APC—adenomatous polyposis coli protein (ESSGTQSPKRHSGSYLVTSV)”, the Classification in assay [2] (PDZ MUPP-1, PDZ Domain 10) is reported as 1 (A450 nm 0-1).
